The source of these data is US9834566B2, “Pyrazolopyrimidine macrocycles as inhibitors of human immunodeficiency virus replication” (priority 2014, dated 2017).

The subject of this experiment is recombinant NL-RLuc virus (NL4-3 with Renilla Luciferase gene). Nature of the experiment: Inhibition of HIV replication (NL-RLuc luciferase reporter virus in MT-2 cells). The experiment is classed as cell-based. Particulars: NL43, 120 h. The text has this:
Inhibition of HIV Replication:
A recombinant NL-RLuc proviral clone was constructed in which a section of the nef gene from NL4-3 was replaced with the Renilla Luciferase gene. This virus is fully infectious and can undergo multiple cycles of replication in cell culture. In addition, the luciferous reporter provides a simple and easy method for quantitating the extent of virus growth and consequently, the antiviral activity of test compounds. The plasmid pNLRLuc contains the proviral NL-Rluc DNA cloned into pUC18 at the PvuII site. The NL-RLuc virus was prepared by transfection of 293T cells with the plasmid pNLRLuc. Transfections were performed using the LipofectAMINE PLUS kit from Invitrogen (Carlsbad, Calif.) according to the manufacturer and the virus generated was titered in MT-2 cells. For susceptibility analyses, the titrated virus was used to infect MT-2 cells in the presence of compound, and after 5 days of incubation, cells were processed and quantitated for virus growth by the amount of expressed luciferase. Assay media was RPMI 1640 supplemented with 10% heat inactivated fetal bovine serum (FBS), 100 units/ml penicillin G/100 units/ml streptomycin, 10 mM HEPES buffer pH 7.55 and 2 mM L-glutamine. The results from at least 2 experiments were used to calculate the EC50 values. Luciferase was quantitated using the Dual Luciferase kit from Promega (Madison, Wis.). Susceptibility of viruses to compounds was determined by incubation in the presence of serial dilutions of the compound. The 50% effective concentration (EC50) was calculated by using the exponential form of the median effect equation where (Fa)=1/[1+(ED50/drug conc.)^m] (Johnson V A, Byington R T. Infectivity Assay. In Techniques in HIV Research. ed. Aldovini A, Walker B D. 71-76. New York: Stockton Press. 1990).

The structures appear in SMILES notation.

With `Cc1nc2cc3nn2c(c1[C@H](OC(C)(C)C)C(=O)O)-c1ccc(cc1)OCCCCCCOc1cc(F)ccc1-c1cccc-3c1` [Example 1, (2S)-2-(tert-butoxy)-2-{18-fluoro-4-methyl-21,28-dioxa-5,7,8-triazahexacyclo [27.2.2.1^6,^9.1^10,^14.0^2,^7.0^15,^20]pentatriaconta-1(31),2,4,6(35),8,10(34),11,13, 15(20),16,18,29,32-tridecaen-3-yl}acetic acid], the EC50 was 397 nM.

Regarding `Cc1nc2cc3nn2c(c1[C@H](OC(C)(C)C)C(=O)O)-c1ccc(cc1)OC/C=C/COc1cc(F)ccc1-c1cccc-3c1` [Example 2, (2S)-2-(tert-butoxy)-2-[(23E)-18-fluoro-4-methyl-21,26-dioxa-5,7,8-triazahexacyclo [25.2.2.1^6,^9.1^10,^14.0^2,^7.0^15,^20]tritriaconta-1(29),2,4,6(33),8,10(32),11,13, 15(20),16,18,23,27,30-tetradecaen-3-yl]acetic acid], the EC50 came to 696 nM.

`Cc1nc2cc3nn2c(c1[C@H](OC(C)(C)C)C(=O)O)-c1ccc(cc1)OCc1cccc(c1)COc1cc(F)ccc1-c1cccc-3c1` [Example 3, (2S)-2-(tert-butoxy)-2-{18-fluoro-4-methyl-21,29-dioxa-5,7,8-triazaheptacyclo [28.2.2.1^6,^9.1^10,^14.1^23,^27.0^2,^7.0^15,^20]heptatriaconta-1(32),2,4,6(37),8,10(36),11,13, 15(20),16,18,23(35),24,26,30,33-hexadecaen-3-yl}acetic acid]: the EC50 was determined as 55 nM.

Consider `Cc1nc2cc3nn2c(c1[C@H](OC(C)(C)C)C(=O)O)-c1ccc(cc1)OCC#CCOc1cc(F)ccc1-c1cccc-3c1` [Example 4, (2S)-2-(tert-butoxy)-2-{18-fluoro-4-methyl-21,26-dioxa-5,7,8-triazahexacyclo [25.2.2.1^6,^9.1^10,^14.0^2,^7.0^15,^20]tritriaconta-1(29),2,4,6(33),8,10(32),11,13, 15(20),16,18,27,30-tridecaen-23-yn-3-yl}acetic acid], for which the EC50 came out at 281 nM.

Regarding `Cc1nc2cc3nn2c(c1[C@H](OC(C)(C)C)C(=O)O)-c1ccc(cc1)OCCOCCOc1cc(F)ccc1-c1cccc-3c1` [Example 5, (2S)-2-(tert-butoxy)-2-{18-fluoro-4-methyl-21,24,27-trioxa-5,7,8-triazahexacyclo [26.2.2.1^6,^9.1^10,^14.0^2,^7.0^15,^20]tetratriaconta-1(30),2,4,6(34),8,10(33),11,13, 15(20),16,18,28,31-tridecaen-3-yl}acetic acid], the EC50 turned out to be 309 nM.

`Cc1nc2cc3nn2c(c1[C@H](OC(C)(C)C)C(=O)O)-c1ccc(c2ccccc12)OCc1cccc(c1)COc1cc(F)ccc1-c1cccc-3c1` [Example 6, (2S)-2-(tert-butoxy)-2-{18-fluoro-4-methyl-21,29-dioxa-5,7,8-triazaoctacyclo[28.6.2.1^6,9.1^10,14. 1^23,27.0^2,7.0^15,20.0^31,36]hentetraconta-1(37),2,4,6(41),8,10(40),11,13,15(20),16,18,23(39),24,26,30(38),31(36),32,34-octadecaen-3-yl}acetic acid]: the EC50 was 20000 nM.

Turning to `Cc1nc2cc3nn2c(c1[C@H](OC(C)(C)C)C(=O)O)-c1ccc(c2ccccc12)OCC#CCOc1cc(F)ccc1-c1cccc-3c1` [Example 7, (2S)-2-(tert-butoxy)-2-{18-fluoro-4-methyl-21,26-dioxa-5,7,8-triazaheptacyclo[25.6.2.1^6,9.1^10,14.0^2,7.0^15,20.0^28,33]heptatriaconta-1(34),2,4,6(37),8,10(36),11,13,15(20),16,18,27(35),28 (33),29,31-pentadecaen-23-yn-3-yl}acetic acid], the EC50 amounted to 12100 nM.

Regarding `C=C1COc2cc(ccc2C)-c2c([C@H](OC(C)(C)C)C(=O)O)c(C)nc3cc(nn23)-c2cccc(c2)-c2ccc(F)cc2OC1` [Example 8, (2S)-2-(tert-Butoxy)-2-{22-fluoro-7,13-dimethyl-17-methylidene-15,19-dioxa-3,4,6-triazahexacyclo [24.3.1.1^2,^5.1^10,^14.0^4,^9.0^20,^25]dotriaconta-1(30),2,5(32),6,8,10,12,14(31), 20(25),21,23,26,28-tridecaen-8-yl}acetic acid], the EC50 worked out at 784 nM.

With `Cc1ccc2cc1OC/C=C/COc1cc(F)ccc1-c1cccc(c1)-c1cc3nc(C)c([C@H](OC(C)(C)C)C(=O)O)c-2n3n1` [Example 9, (2S)-2-(tert-Butoxy)-2-[(17E)-23-fluoro-7,13-dimethyl-15,20-dioxa-3,4,6-triazahexacyclo [25.3.1.1^2,^5.1^10,^14.0^4,^9.0^21,^26]tritriaconta-1(31),2,5(33),6,8,10,12,14(32), 17,21(26),22,24,27,29-tetradecaen-8-yl]acetic acid], the EC50 is 489 nM.

As for `Cc1ccc2cc1OCc1cccc(n1)COc1cc(F)ccc1-c1cccc(c1)-c1cc3nc(C)c([C@H](OC(C)(C)C)C(=O)O)c-2n3n1` [Example 10, (2S)-2-(tert-Butoxy)-2-{26-fluoro-7,13-dimethyl-15,23-dioxa-3,4,6,35-tetraazaheptacyclo [28.3.1.1^2,^5.1^10,^14.0^17,^21.0^4,^9.0^24,^29]heptatriaconta-1(34),2,5(37),6,8,10,12,14(36), 17(35),18,20,24(29),25,27,30,32-hexadecaen-8-yl}acetic acid], the EC50 turned out to be 4200 nM.

For the molecule `Cc1ccc2cc1OC/C=C\COc1cc(F)ccc1-c1cccc(c1)-c1cc3nc(C)c([C@H](OC(C)(C)C)C(=O)O)c-2n3n1` [Example 11, (2S)-2-(tert-Butoxy)-2-[(17Z)-23-fluoro-7,13-dimethyl-15,20-dioxa-3,4,6-triazahexacyclo [25.3.1.1^2,^5.1^10,^14.0^4,^9.0^21,^26]tritriaconta-1(31),2,5(33),6,8,10,12,14(32), 17,21(26),22,24,27,29-tetradecaen-8-yl]acetic acid], the EC50 was 3310 nM.

On to `Cc1ccc2cc1OCCC(F)(F)C(F)(F)CCOc1cc(F)ccc1-c1cccc(c1)-c1cc3nc(C)c([C@H](OC(C)(C)C)C(=O)O)c-2n3n1` [Example 12, (2S)-2-(tert-Butoxy)-2-{18,18,19,19,25-pentafluoro-7,13-dimethyl-15,22-dioxa-3,4,6-triazahexacyclo [27.3.1.1^2,^5.1^10,^14.0^4,^9.0^23,^28]pentatriaconta-1(33),2,5(35),6,8,10,12,14(34), 23(28),24,26,29,31-tridecaen-8-yl}acetic acid], for which the EC50 was found to be 1670 nM.

Consider `Cc1ccc2cc1OCC#CCOc1cc(F)ccc1-c1cccc(c1)-c1cc3nc(C)c([C@H](OC(C)(C)C)C(=O)O)c-2n3n1` [Example 13, (2S)-2-(tert-Butoxy)-2-{23-fluoro-7,13-dimethyl-15,20-dioxa-3,4,6-triazahexacyclo [25.3.1.1^2,^5.1^10,^14.0^4,^9.0^21,^26]tritriaconta-1(31),2,5(33),6,8,10,12,14(32), 21(26),22,24,27,29-tridecaen-17-yn-8-yl}acetic acid], for which the EC50 turned out to be 288 nM.

Turning to `Cc1ccc2cc1OCCN(C(C)(C)C)CCOc1cc(F)ccc1-c1cccc(c1)-c1cc3nc(C)c([C@H](OC(C)(C)C)C(=O)O)c-2n3n1` [Example 14, (2S)-2-(tert-Butoxy)-2-{18-tert-butyl-24-fluoro-7,13-dimethyl-15,21-dioxa-3,4,6,18-tetraazahexacyclo [26.3.1.1^2,^5.1^10,^14.0^4,^9.0^22,^27]tetratriaconta-1(32),2,5(34),6,8,10,12,14(33), 22(27),23,25,28,30-tridecaen-8-yl}acetic acid], the EC50 turned out to be 3250 nM.

Turning to `Cc1ccc2cc1OCc1cccc(c1)COc1cc(F)ccc1-c1cccc(c1)-c1cc3nc(C)c([C@H](OC(C)(C)C)C(=O)O)c-2n3n1` [Example 15, (2S)-2-(tert-Butoxy)-2-{26-fluoro-7,13-dimethyl-15,23-dioxa-3,4,6-triazaheptacyclo [28.3.1.1^2,^5.1^10,^14.1^17,^21.0^4,^9.0^24,^29]heptatriaconta-1(34),2,5(37),6,8,10,12,14(36), 17(35),18,20,24(29),25,27,30,32-hexadecaen-8-yl}acetic acid], the EC50 was found to be 301 nM.

Regarding `Cc1ccc2cc1OCCCCCCOc1cc(F)ccc1-c1cccc(c1)-c1cc3nc(C)c([C@H](OC(C)(C)C)C(=O)O)c-2n3n1` [Example 16, (2S)-2-(tert-Butoxy)-2-{25-fluoro-7,13-dimethyl-15,22-dioxa-3,4,6-triazahexacyclo [27.3.1.1^2,^5.1^10,^14.0^4,^9.0^23,^28]pentatriaconta-1(33),2,5(35),6,8,10,12,14(34), 23(28),24,26,29,31-tridecaen-8-yl}acetic acid], the EC50 was found to be 780 nM.

For the molecule `Cc1ccc2cc1OCCOCCOc1cc(F)ccc1-c1cccc(c1)-c1cc3nc(C)c([C@H](OC(C)(C)C)C(=O)O)c-2n3n1` [Example 17, (2S)-2-(tert-Butoxy)-2-{24-fluoro-7,13-dimethyl-15,18,21-trioxa-3,4,6-triazahexacyclo [26.3.1.1^2,^5.1^10,^14.0^4,^9.0^22,^27]tetratriaconta-1(32),2,5(34),6,8,10,12,14(33), 22(27),23,25,28,30-tridecaen-8-yl}acetic acid], the EC50 was found to be 289 nM.
